Experimental data from ChEMBL document CHEMBL5233210, “Pyrazolone structural motif in medicinal chemistry: Retrospect and prospect” (Eur J Med Chem, 2020).
Converted amounts (≈) assume the structure as drawn.

What was measured:
MCF7 = experiment: Cytotoxicity against human MCF7 cells; assay type: functional, cell-based
[1] = Antioxidant activity assessed as DPPH radical scavenging activity; assay type: functional
Ehrlich [2] = experiment: Cytotoxicity against mouse Ehrlich ascites cells assessed as dead cells at 500 ug/ml; assay type: functional; conditions: dose 500 µg/ml
Ehrlich [3] = experiment: Cytotoxicity against mouse Ehrlich ascites cells assessed as dead cells at 100 ug/ml; assay type: functional; conditions: dose 100 µg/ml
Ehrlich [4] = experiment: Cytotoxicity against mouse Ehrlich ascites cells assessed as dead cells at 25 ug/ml; assay type: functional; conditions: dose 25 µg/ml
Rattus norvegicus [5] = experiment: Antiinflammatory activity against rat assessed as inhibition of carrageenan-induced paw edema relative to control; assay type: functional; parameters: concentration or dose not given beside the values
Staphylococcus aureus = experiment: Antibacterial activity against Staphylococcus aureus; assay type: functional
Escherichia coli [6] = experiment: Antibacterial activity against Escherichia coli; assay type: functional
Candida albicans = experiment: Antifungal activity against Candida albicans; assay type: functional
Aspergillus niger = experiment: Antifungal activity against Aspergillus niger; assay type: functional
Pseudomonas aeruginosa = experiment: Antibacterial activity against Pseudomonas aeruginosa; assay type: functional
Bacillus subtilis [7] = experiment: Antibacterial activity against Bacillus subtilis; assay type: functional
Aspergillus fumigatus = experiment: Antifungal activity against Aspergillus fumigatus; assay type: functional
Streptococcus pyogenes = experiment: Antibacterial activity against Streptococcus pyogenes; assay type: functional
[8] = Antioxidant activity assessed as ABTS radical scavenging activity; assay type: functional
Escherichia coli [9] = experiment: Antibacterial activity against Escherichia coli assessed as diameter of inhibition zone at 100 ppm; assay type: functional; conditions: read-out: DIZ
Bacillus subtilis [10] = experiment: Antibacterial activity against Bacillus subtilis assessed as diameter of inhibition zone at 100 ppm; assay type: functional; conditions: read-out: DIZ
Ovis aries = species: Ovis aries; experiment: Selectivity index, ratio of IC50 for ovine COX-1 to IC50 for ovine COX-2
Rattus norvegicus [11] = experiment: Antiinflammatory activity against rat assessed as inhibition of carrageenan-induced paw edema; assay type: functional

Work on `Cc1c(-n2cc(C#N)c(=O)n(-c3ccccc3)/c2=N\c2ccccc2)c(=O)n(-c2ccccc2)n1C` yielded an IC50 (MCF7) of 45 µM.

In the case of `Cc1c(/N=C/c2ccccc2)c(=O)n(-c2ccccc2)n1C`, the IC50 [1] is reported as 31.3 µM.

Work on `CCCOC(=O)c1cc(O)c(O)c(O)c1` [PROPYL GALLATE] yielded an IC50 [1] of 30.3 µM.

For `CCOC(=O)c1c(N/N=C2/C(=O)NN=C2C)sc2c1CCCC2`, the Activity (Ehrlich [2]) was 71%, the Activity (Ehrlich [3]) was 79.4% and the Activity (Ehrlich [4]) was 43%.

`COc1cc(-c2cc(C3C(=O)N(c4ccccc4)N=C3C)nc(N)n2)ccc1O` (stereo not drawn) gave an Activity (Rattus norvegicus [5]) of 61.23%.

In the case of `Nc1cc(=O)n(C(=O)CN2N=C(C(F)(F)F)/C(=N/Nc3ccc(Br)cc3)C2=O)[nH]1`, the MIC (Staphylococcus aureus) is reported as 7.96 µg/mL (≈ 16.8 µM), the MIC (Escherichia coli [6]) is reported as 13.3 µg/mL (≈ 28 µM) and the MIC (Candida albicans) is reported as 8.58 µg/mL (≈ 18.1 µM). It also gave an MIC (Aspergillus niger) of 7.52 µg/mL (≈ 15.9 µM) and an MIC (Pseudomonas aeruginosa) of 10.2 µg/mL (≈ 21.6 µM).

`NC1=NNC(=O)C1C(CS(=O)(=O)Cc1ccccc1)c1ccccc1` (stereo not drawn) showed an MIC (Bacillus subtilis [7]) of 25 µg/mL (≈ 69.9 µM), an MIC (Staphylococcus aureus) of 25 µg/mL (≈ 69.9 µM) and an MIC (Aspergillus niger) of 50 µg/mL (≈ 140 µM).

In the case of `Cc1c(-n2cc(C#N)c(=O)n(-c3ccccc3)c2=N)c(=O)n(-c2ccccc2)n1C`, the IC50 (MCF7) is reported as 54.2 µM.

Compound `CC(C)CCC[C@@H](C)[C@H]1CC[C@H]2[C@@H]3C/C(=C4\C(=O)NN=C4N)C4CC(Cl)CC[C@]4(C)[C@H]3CC[C@]12C` (stereo partly drawn) has an MIC (Aspergillus fumigatus) of 50 µg/mL (≈ 99.6 µM), an MIC (Escherichia coli [6]) of 100 µg/mL (≈ 199 µM) and an MIC (Candida albicans) of 50 µg/mL (≈ 99.6 µM). The MIC (Streptococcus pyogenes) was 50 µg/mL (≈ 99.6 µM) and the MIC (Pseudomonas aeruginosa) was 50 µg/mL (≈ 99.6 µM).

With `CC1=NNC(=O)/C1=N/Nc1sc2c(c1C(N)=O)CCCC2` the Activity (Ehrlich [2]) was 66.6%, the Activity (Ehrlich [3]) was 96.5% and the Activity (Ehrlich [4]) was 38.1%.

`COc1cc(-c2cc(C3C(=O)N(c4ccc([N+](=O)[O-])cc4[N+](=O)[O-])N=C3C)nc(N)n2)ccc1O` (stereo not drawn) showed an Activity (Rattus norvegicus [5]) of 62.51%.

In the case of `CC1=NN(C(=S)NN)C(=O)/C1=N/Nc1ccc(C)cc1`, the MIC (Escherichia coli [6]) is reported as 125 µg/mL (≈ 431 µM), the MIC (Candida albicans) is reported as 7.8 µg/mL (≈ 26.9 µM) and the MIC (Aspergillus niger) is reported as 2.9 µg/mL (≈ 9.99 µM).

`CC(C)CCC[C@@H](C)[C@H]1CC[C@H]2[C@@H]3C/C(=C4\C(=O)NN=C4N)C4CCCC[C@]4(C)[C@H]3CC[C@]12C` (stereo partly drawn) gave an MIC (Aspergillus fumigatus) of 25 µg/mL (≈ 53.4 µM), an MIC (Escherichia coli [6]) of 50 µg/mL (≈ 107 µM) and an MIC (Candida albicans) of 25 µg/mL (≈ 53.4 µM). It also gave an MIC (Streptococcus pyogenes) of 50 µg/mL (≈ 107 µM) and an MIC (Pseudomonas aeruginosa) of 50 µg/mL (≈ 107 µM).

`C/C(=N\c1c(C)n(C)n(-c2ccccc2)c1=O)c1cc(O)ccc1O` gave an IC50 [1] of 15.2 µM.

`CC1=NNC(=O)/C1=N/Nc1sc2c(c1C#N)CCCC2` gave an Activity (Ehrlich [2]) of 53.3%, an Activity (Ehrlich [3]) of 84% and an Activity (Ehrlich [4]) of 29.8%.

Work on `N#Cc1c(N/N=C2/C(=O)NN=C2N)sc2c1CCCC2` yielded an Activity (Ehrlich [2]) of 98.6%, an Activity (Ehrlich [3]) of 100% and an Activity (Ehrlich [4]) of 94%.

With `O=C1O[C@H]([C@@H](O)CO)C(O)=C1O` the Activity [8] was 88.2%.

In the case of `CCOC(=O)C1CCN(/C(Nc2ccccc2)=C2\C(=O)N(c3ccccc3)N=C2C)CC1`, the zone of inhibition at 100 µg/mL (Escherichia coli [9]) is reported as 40 mm and the zone of inhibition at 100 µg/mL (Bacillus subtilis [10]) is reported as 36 mm.

For `Cc1c(-n2cc(C#N)c(=O)n(-c3ccc(S(=O)(=O)c4ccc(-n5c(=O)c(C#N)cn(-c6c(C)n(C)n(-c7ccccc7)c6=O)c5=S)cc4)cc3)c2=S)c(=O)n(-c2ccccc2)n1C`, the IC50 (MCF7) was 37.2 µM.

For `CC1=NN(c2ccccc2)C(=O)C1c1cc(-c2ccc(O)cc2)nc(N)n1` (stereo not drawn), the Activity (Rattus norvegicus [5]) was 61.84%.

With `CC1=NN(c2nc(-c3ccccc3)cs2)C(=O)C1C(=S)Nc1ccccc1` (stereo not drawn) the Activity [8] was 88.6%.

Compound `Cc1c(N/C=C2\C(=N)N(c3ccccc3)N=C2N)c(=O)n(-c2ccccc2)n1C` has an IC50 (MCF7) of 60.7 µM.

Compound `Cc1c(-n2cc(C#N)c(=O)n(-c3ccc(Br)cc3)c2=S)c(=O)n(-c2ccccc2)n1C` has an IC50 (MCF7) of 43.4 µM.

Compound `CCCCNc1nc2ccccc2n1C1=NN=C(O)C1` has a Ratio IC50 (Ovis aries) of 4.84 and an Activity (Rattus norvegicus [5]) of 61%.

Compound `CC1=NN(c2ccc([N+](=O)[O-])cc2[N+](=O)[O-])C(=O)C1c1cc(-c2ccc(N(C)C)cc2)nc(N)n1` (stereo not drawn) has an Activity (Rattus norvegicus [5]) of 62.05%.

Work on `NS(=O)(=O)c1ccc(N/N=C2/C=NN(c3ccc(C(=O)O)cc3)C2=O)cc1` yielded an ED50 (Rattus norvegicus [11]) of 79 µmol/kg and an Activity (Rattus norvegicus [5]) of 72.72%.
